Results as given in ChEMBL document CHEMBL3259778, “Design and synthesis of novel indole-chalcone fibrates as lipid lowering agents” (2014).
Calls of active or inactive are those of the source. The calls are words filed in the database; no cut-off is given here.

Columns and labels:
[1] = system: Rattus norvegicus; experiment: Antidyslipidemic activity in triton-induced hyperlipidemic Charles Foster rat assessed as reduction in total cholesterol in plasma at 100 mg/kg, po relative to control; assay type: functional; parameters: scale not given: the % may be the effect or the level left
[2] = system: Rattus norvegicus; experiment: Antidyslipidemic activity in triton-induced hyperlipidemic Charles Foster rat assessed as plasma post heparin lipolytic activity at 100 mg/kg, po relative to control; assay type: functional
[3] = system: Rattus norvegicus; experiment: Antidyslipidemic activity in triton-induced hyperlipidemic Charles Foster rat assessed as reduction in triglyceride in plasma at 100 mg/kg, po relative to control; assay type: functional; parameters: scale not given: the % may be the effect or the level left
[4] = system: Rattus norvegicus; experiment: Antidyslipidemic activity in triton-induced hyperlipidemic Charles Foster rat assessed as reduction in phospholipid in plasma at 100 mg/kg, po relative to control; assay type: functional; parameters: scale not given: the % may be the effect or the level left
[5] = Antioxidant activity assessed as hydroxyl ion scavenging activity measured as MDA formation at 200 ug/ml after 90 mins by spectrophotometry relative to control; assay type: functional
[6] = system: Rattus norvegicus; experiment: Antidyslipidemic activity in triton-induced hyperlipidemic Charles Foster rat assessed as increase in total lipolytic activity of lipoprotein lipase at 100 mg/kg, po relative to control; assay type: functional, organism-based; parameters: dose 100 mg/kg
[7] = system: Rattus norvegicus; experiment: Antidyslipidemic activity in triton-induced hyperlipidemic po dosed Charles Foster rat assessed as increase in HDL in plasma relative to control; assay type: functional, organism-based
[8] = system: Rattus norvegicus; experiment: Antidyslipidemic activity in triton-induced hyperlipidemic po dosed Charles Foster rat assessed as reduction in LDL in plasma relative to control; assay type: functional, organism-based
[9] = Antioxidant activity assessed as suppression of microsomal lipid peroxidation measured as MDA formation at 200 ug/ml after 90 mins by spectrophotometry relative to control; assay type: functional
[10] = Antioxidant activity assessed as superoxide ion scavenging activity measured as formazone formation at 200 ug/ml after 90 mins by spectrophotometry relative to control; assay type: functional
[11] = system: Rattus norvegicus; experiment: Antidyslipidemic activity in triton-induced hyperlipidemic Charles Foster rat assessed as reduction in total cholesterol in plasma at 50 to 150 mg/kg, po relative to control; assay type: functional; parameters: scale not given: the % may be the effect or the level left; conditions: dose mg/kg 50-150
[12] = system: Rattus norvegicus; experiment: Antidyslipidemic activity in triton-induced hyperlipidemic po dosed Charles Foster rat assessed as reduction in VLDL in plasma relative to control; assay type: functional, organism-based
[13] = system: Rattus norvegicus; experiment: Antidyslipidemic activity in triton-induced hyperlipidemic Charles Foster rat assessed as reduction in phospholipid in plasma at 50 to 150 mg/kg, po relative to control; assay type: functional; parameters: scale not given: the % may be the effect or the level left; conditions: dose mg/kg 50-150
[14] = system: Rattus norvegicus; experiment: Antidyslipidemic activity in triton-induced hyperlipidemic Charles Foster rat assessed as reduction in triglyceride in plasma at 50 to 150 mg/kg, po relative to control; assay type: functional; parameters: scale not given: the % may be the effect or the level left; conditions: dose mg/kg 50-150

SMILES | Activity [1] | Activity [2] | Activity [3] | Activity [4] | Activity [5] | Activity [6] | Activity [7] | Activity [8] | Activity [9] | Activity [10] | Activity [11] | Activity [12] | Activity [13] | Activity [14]
CCOC(=O)C(CC)Oc1ccc(C(=O)/C=C/c2c(C)[nH]c3ccccc23)cc1 (stereo unspecified) | 20% | 14% | 22% | 22% |  |  |  |  |  |  |  |  |  | 
COC(=O)C(C)(C)Oc1ccc(C(=O)/C=C/c2c(C)[nH]c3ccccc23)cc1 | 10% | 6% | 10% | 12% |  |  |  |  |  |  |  |  |  | 
COC(=O)CCCOc1ccc(C(=O)/C=C/c2c(C)[nH]c3ccccc23)cc1 | 15% | 9% | 16% | 18% |  |  |  |  |  |  |  |  |  | 
COC(=O)C(C)Oc1ccc(C(=O)/C=C/c2c[nH]c3ccc(Cl)cc23)cc1 (stereo unspecified) | 12% | 3% | 17% | 14% |  |  |  |  |  |  |  |  |  | 
OC[C@@H](O)[C@@H](O)[C@H](O)[C@H](O)CO |  |  |  |  | 53% |  |  |  |  |  |  |  |  | 
COC(=O)CCCOc1ccc(C(=O)/C=C/c2c[nH]c3ccc(OC)cc23)cc1 | 13% | 7% | 14% | 11% |  |  |  |  |  |  |  |  |  | 
CCOC(=O)C(C)Oc1ccc(C(=O)/C=C/c2c[nH]c3ccc(OC)cc23)cc1 (stereo unspecified) | 11% | 6% | 10% | 13% |  |  |  |  |  |  |  |  |  | 
CCOC(=O)C(C)(C)Oc1ccc(C(=O)/C=C/c2c(C)[nH]c3ccccc23)cc1 | 32% | 20% | 30% | 33% | 41% | Active | Active | Active | 40% | 36% | 24% | Active | 26% | 25%
COC(=O)CCCOc1ccc(C(=O)/C=C/c2c[nH]c3ccccc23)cc1 | 20% | 14% | 22% | 22% | 32% |  |  |  | 30% | 26% |  |  |  | 
COC(=O)CCCOc1ccc(C(=O)/C=C/c2c[nH]c3ccc(Cl)cc23)cc1 | 10% | 4% | 10% | 11% |  |  |  |  |  |  |  |  |  | 
CCOC(=O)C(CC)Oc1ccc(C(=O)/C=C/c2c[nH]c3ccc(Cl)cc23)cc1 (stereo unspecified) | 18% | 13% | 16% | 16% |  |  |  |  |  |  |  |  |  | 
CCOC(=O)C(C)Oc1ccc(C(=O)/C=C/c2c[nH]c3ccc(Cl)cc23)cc1 (stereo unspecified) | 11% | 7% | 13% | 15% |  |  |  |  |  |  |  |  |  | 
Oc1ncnc2[nH]ncc12 |  |  |  |  |  |  |  |  |  | 49% |  |  |  | 
CCOC(=O)C(C)Oc1ccc(C(=O)/C=C/c2c[nH]c3ccccc23)cc1 (stereo unspecified) | 15% | 8% | 12% | 13% |  |  |  |  |  |  |  |  |  | 
COC(=O)C(C)Oc1ccc(C(=O)/C=C/c2c[nH]c3ccccc23)cc1 (stereo unspecified) | 13% | 6% | 12% | 14% |  |  |  |  |  |  |  |  |  | 
CCC(Oc1ccc(C(=O)/C=C/c2c(C)[nH]c3ccccc23)cc1)C(=O)OC (stereo unspecified) | 26% | 16% | 27% | 24% | 29% | Active | Active | Active | 28% | 27% | 14% | Active | 17% | 15%
CCOC(=O)CCCOc1ccc(C(=O)/C=C/c2c[nH]c3ccccc23)cc1 | 31% | 19% | 30% | 32% | 37% | Active | Active | Active | 35% | 31% | 22% | Active | 20% | 20%
Cc1c(C)c2c(c(C)c1O)CC[C@@](C)(CCC[C@H](C)CCC[C@H](C)CCCC(C)C)O2 |  |  |  |  |  |  |  |  | 46% |  |  |  |  | 
CCOC(=O)CCCOc1ccc(C(=O)/C=C/c2c(C)[nH]c3ccccc23)cc1 | 13% | 7% | 14% | 16% |  |  |  |  |  |  |  |  |  | 
CCC(Oc1ccc(C(=O)/C=C/c2c[nH]c3ccccc23)cc1)C(=O)OC (stereo unspecified) | 8% | 3% | 9% | 8% |  |  |  |  |  |  |  |  |  | 
CC(C)OC(=O)C(C)(C)Oc1ccc(C(=O)c2ccc(Cl)cc2)cc1 [FENOFIBRATE] | 32% | 19% | 33% | 30% |  | Active |  |  |  |  |  |  |  | 
CCOC(=O)C(C)(C)Oc1ccc(C(=O)/C=C/c2c[nH]c3ccccc23)cc1 | 20% | 14% | 22% | 22% | 38% |  |  |  | 36% | 33% |  |  |  | 
